In brackets after ≈: the same amount, converted by molar mass. Like-named read-outs stand apart in the source and are kept apart here.
Assays:
Format in all cases: cell-based
S. aureus [1] = assay: Antimicrobial susceptibility (MIC/MBEC), standard assays in polystyrene wells; settings: for MIC: Staphylococcus aureus
S. aureus [2] = assay: Preventative hydroxyapatite (HA) experiment; settings: K-W test, p<0.01; comparator=control; FIG. 16
Text: FIG. 16 depicts the results of a preventative hydroxyapatite (HA) experiment with tested compounds against S. aureus.
FIG. 16 depicts the results of a preventative hydroxyapatite (HA) experiment with tested compounds against S. aureus. […] (K-W test, * p<0.01; comparator=control). The results were obtained using standard assays.

S. aureus biofilm [3] = assay: Ex vivo rat femur biofilm prevention setting; settings: rat femurs saturated with compound; K-W test, p<0.01; comparator=control; FIG. 18B
Text: (§1) FIG. 18A is a picture of rat femurs saturated with antibiotics or the conjugates after they are introduced to a solution of S. aureus in our ex vivo preventative experimental setting. The more the bone appears red, the more staphylococcal biofilms there are adhered to the surface in those regions.
as §1, with “depicts” for “is”

S. aureus biofilm [4] = assay: Ex vivo rat femur biofilm eradication setting; settings: K-W test, p<0.01, comparator=control, FIG. 18B
Aa = assay: Antimicrobial susceptibility (MIC/MBEC), standard assays in polystyrene wells
[5] = S. aureus, polystyrene wells, read-out: MIC

| Compound | MBEC (S. aureus [1]; S. aureus, polystyrene wells) [µg/mL] | MIC (S. aureus [1]; [5]) [µg/mL] | efficacy for preventing the growth of staphylococcal cells on HA (S. aureus [2]) | S. aureus biofilm prevention on femurs ex vivo (S. aureus biofilm [3]) | S. aureus biofilm eradication on femurs ex vivo (S. aureus biofilm [4]) | MBEC (Aa) [µg/mL] | MIC (Aa) [µg/mL] | MIC (S. aureus [1]) [µg/mL] |
| --- | --- | --- | --- | --- | --- | --- | --- | --- |
| Cn1nnc(-c2ccc(-c3ccc(N4C[C@H](COC(=O)Nc5ccc(CC(P(=O)(O)O)P(=O)(O)O)cc5)OC4=O)cc3F)cn2)n1 [BCT, (R)-(2-(4-((((3-(3-fluoro-4-(6-(2-methyl-2H-tetrazol-5-yl)pyridin-3-yl)phenyl)-2-oxooxazolidin-5-yl)methoxy)carbonyl)amino)phenyl)ethane-1,1-diyl)bis(phosphonic acid)] | 32 | 16 (≈ 23.6 µM) |  |  |  |  |  |  |
| Cn1nnc(-c2ccc(-c3ccc(N4C[C@H](COC(=O)c5ccc(CC(P(=O)(O)O)P(=O)(O)O)cc5)OC4=O)cc3F)cn2)n1 [BET, (R)-(2-(4-(((3-(3-fluoro-4-(6-(2-methyl-2H-tetrazol-5-yl)pyridin-3-yl)phenyl)-2-oxooxazolidin-5-yl)methoxy)carbonyl)phenyl)ethane-1,1-diyl)bis(phosphonic acid)] | 16 | 4 (≈ 6.04 µM) | statistically significant efficacy for preventing the growth of staphylococcal cells | significantly prevented or eradicated biofilm growth | significantly prevented or eradicated biofilm growth |  |  |  |
| O=C(O)c1cn(C2CC2)c2cc(N3CCNCC3)c(F)cc2c1=O [C, Ciprofloxacin] | 32 | 0.5 (≈ 1.51 µM) |  |  |  | 8 | 0.5 (≈ 1.51 µM) |  |
| CN(C)c1ccc(O)c2c1C[C@H]1C[C@H]3[C@H](N(C)C)C(O)=C(C(N)=O)C(=O)[C@@]3(O)C(O)=C1C2=O [M, Minocycline] | 16 | 0.25 (≈ 0.546 µM) |  |  |  | 8 | 2 (≈ 4.37 µM) |  |
| Cn1nnc(-c2ccc(-c3ccc(N4C[C@H](CO)OC4=O)cc3F)cn2)n1 [T, Tedizolid] | 8 | 0.5 (≈ 1.35 µM) |  |  |  |  |  |  |
| CN[C@H](CC(C)C)C(=O)N[C@H]1C(=O)N[C@@H](CC(N)=O)C(=O)N[C@H]2C(=O)N[C@H]3C(=O)N[C@H](C(=O)N[C@H](C(=O)O)c4cc(O)cc(O)c4-c4cc3ccc4O)[C@H](O)c3ccc(c(Cl)c3)Oc3cc2cc(c3O[C@@H]2O[C@H](CO)[C@@H](O)[C@H](O)[C@H]2O[C@H]2C[C@](C)(N)[C@H](O)[C@H](C)O2)Oc2ccc(cc2Cl)[C@H]1O [V, Vancomycin] | 8 |  |  |  |  |  |  | 1 (≈ 0.69 µM) |
| COc1c(N2C[C@@H]3CCCN[C@@H]3C2)c(F)cc2c(=O)c(C(=O)O)cn(C3CC3)c12 [X, Moxifloxacin] | 0.5 | 0.05 (≈ 0.125 µM) |  |  |  | 0.1 | 0.05 (≈ 0.125 µM) |  |
